Test results as given in US20190015327A1, “COMPOSITIONS AND METHODS FOR TREATING CONDITIONS RELATED TO LACK OF BLOOD SUPPLY, SHOCK AND NEURONAL INJURIES” (VIVACELLE BIO, INC., priority 2015, published 2019).
Several values for one entry are separate records, joined by “and”; a condition that tells them apart may be missing. Equal values may be shown once.

Legend:
[1] = published value; cited from earlier work
[2] = Nitric oxide uptake / NO content by mass spectrometry; conditions: 100 ppm nitric oxide in helium, 60 min equilibration
Method: Some samples (1 ml each) were left open to air in 2.0 ml tubes for 30 minutes prior to dissolved gas analysis. In other experiments the emulsion was placed into a 15 ml tube. The headspace was filled with the gas under study and the gas was allowed to enter the emulsion by equilibration over 60 minutes with the tube on its side to increase the gas emulsion interaction. 50 μL drawn from each of these fluids were injected into a Sievers purge vessel at 37° C. containing 36 ml of a mildly acidic solution consisting of 32 ml of 1M HCL and 4 ml of 0.5M ascorbic acid. […] Signals generated at m/z=32 upon injection of RL and lipid emulsion samples were integrated using Peakfit and compared to those obtained with distilled water.
In another set of experiments we measured the uptake of nitric oxide by a commercially available 20% soybean oil emulsion, Liposyn III 20%. This emulsion contains 20% soybean oil, 1.2% egg phospholipids and 2.5% glycerin in water. Using NaOH pH was adjusted to 8.3. […] 100 ppm nitric oxide in helium was used to purge the hesdspace for two minutes taking care not to bubble the fluid. For sixty minutes the sample was allowed to reach gas-liquid equilibrium with the tube placed on its side to maximize gas-emulsion contact.
The uptake of NO and O2 by a commercial 20% soybean oil emulsion, Liposyn, was measured using mass spectrometry. […] To approximate field conditions, no warming or respiratory support was provided. Next, 55% of blood volume was removed within 2 minutes. […] The time of clinical death was defined as the cessation of respiration. […] In 5 mice a volume of Ringer's lactate equal to the volume of blood removed was administered via the internal jugular vein over 2 minutes immediately after the loss of chest wall movement. […] In 6 mice a volume of Ringer's lactate equal to the volume of blood removed was administered via the carotid artery over 2 minutes. […] In the next set of experiments, infusing Ringers' lactate was delayed for 3 minutes. […] A volume of emulsion equal to the volume of blood that had been removed was infused.

[3] = 1 atm; from The Engineering Toolbox; cited from earlier work

Compound	oxygen release time [1]	NO Content, Mean [2]	NO Content, single samples [2]	Oxygen Content at 25° C. and Sea level Pressure [3]
hemoglobin	17.5 ms			
O [Water]		1.77 mol/L	2.29 mol/L and 1.52 mol/L and 1.63 mol/L and 1.72 mol/L and 1.69 mol/L	8.3 mg/L
